From patent US20210238139A1, “MODULATORS OF TRYPTOPHAN CATABOLISM” (E-Therapeutics PLC, priority 2018, published 2021)
pIC50: −log10 of the molar value.

Test system: SK-OV-3 cells
Assay: Effect of compounds on tryptophan catabolism in SK-OV-3 cell line (inhibition of kynurenine production, LC-MS/MS)
Type: cell-based
Details: Homo sapiens, SK-OV-3, 24 h, SK-OV-3 cell line, 24 h incubation, kynurenine in supernatant by LC-MS/MS; read-out: IC50 Ranges (ic50 values for inhibition of Kynurenine production)
Method in brief: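 Kynurenine in supernatants quantified by LC-MS/MS after 24 h compound exposure (37 °C; top 30 μM, eight 3-fold steps, duplicate) in DMEM F-12 containing 6 mg/mL L-tryptophan. Cells pre-plated overnight in McCoy's 5A with 10% FBS. Viability checked in parallel by ATP luminescence.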

pIC50	SMILES
5.30 to 6.00	Cc1ccc(CN(C(=O)Nc2ccc(C#N)cc2)c2ncnn2C)o1 [Compound 266, 3-(4-cyanophenyl)-1-[(5-methyl-2-furyl)methyl]-1-(2-methyl-1,2,4-triazol-3-yl) urea]
6.30 to 7.00	Cc1ccc(CN(C(=O)Nc2ccc(Cl)cc2)c2cnnn2C)o1 [Compound 267, 3-(4-chlorophenyl)-1-[(5-methyl-2-furyl)methyl]-1-(3-methyltriazol-4-yl)urea]
6.00 to 6.30	Cc1ccc(CN(C(=O)Nc2ccc(C#N)cc2)c2cnnn2C)o1 [Compound 268, 3-(4-cyanophenyl)-1-[(5-methyl-2-furyl)methyl]-1-(3-methyltriazol-4-yl)urea]
6.30 to 7.00	Cc1ccc(CN(C(=O)Nc2ccc(Cl)cc2)[C@H]2C[C@@H](F)C2)o1 [Compound 271, 3-(4-chlorophenyl)-1-(3-fluorocyclobutyl)-1-[(5-methyl-2-furyl)methyl]urea]
6.00 to 6.30	Cc1ccc(CN(C(=O)Nc2ccc(C#N)cc2)[C@H]2C[C@H](F)C2)o1 [Compound 272, 3-(4-cyanophenyl)-1-(3-fluorocyclobutyl)-1-[(5-methyl-2-furyl)methyl]urea]
6.30 to 7.00	Cc1ccc(CN(C(=O)Nc2ccc(Cl)cc2)[C@H]2C[C@H](F)C2)o1 [Compound 273, 3-(4-chlorophenyl)-1-(3-fluorocyclobutyl)-1-[(5-methyl-2-furyl)methyl]urea]
5.30 to 6.00	N#Cc1ccc(NC(=O)N(Cc2ccn3ccnc3n2)C2CCC2)cc1 [Compound 274, 3-(4-cyanophenyl)-1-cyclobutyl-1-(imidazo[1,2-a]pyrimidin-7-ylmethyl)urea]
5.30 to 6.00	O=C(Nc1ccc(Cl)cc1)N(Cc1ccn2ccnc2n1)C1CCC1 [Compound 275, 3-(4-chlorophenyl)-1-cyclobutyl-1-(imidazo[1,2-a]pyrimidin-7-ylmethyl)urea]
> 7.00	Cc1ccc(CN(C(=O)Nc2ccc(C#N)cc2)c2conc2C)o1 [Compound 278, 3-(4-cyanophenyl)-1-[(5-methyl-2-furyl)methyl]-1-(3-methylisoxazol-4-yl)urea]
5.30 to 6.00	Cn1nccc1N(Cc1ccc2ncsc2c1)C(=O)Nc1ccc(C#CCO)cc1 [Compound 280, 1-(1,3-benzothiazol-6-ylmethyl)-3-[4-(3-hydroxyprop-1-ynyl)phenyl]-1-(2-methylpyrazol-3-yl)urea]
5.30 to 6.00	Cc1oncc1N(Cc1ccc2scnc2c1)C(=O)Nc1ccc(C#N)cc1 [Compound 281, 1-(1,3-benzothiazol-5-ylmethyl)-3-(4-cyanophenyl)-1-(5-methylisoxazol-4-yl)urea]
6.00 to 6.30	Cc1ccc(CN(C(=O)Nc2ccc(Cl)cc2)c2ccccn2)o1 [Compound 282, 3-(4-chlorophenyl)-1-[(5-methyl-2-furyl)methyl]-1-(2-pyridyl)urea]
5.30 to 6.00	Cc1ccc(CN(C(=O)Nc2ccc(C#N)cc2)c2ccccn2)o1 [Compound 283, 3-(4-cyanophenyl)-1-[(5-methyl-2-furyl)methyl]-1-(2-pyridyl)urea]
6.30 to 7.00	Cc1ccc(CN(C(=O)Nc2ccc(Cl)cc2)C23CC(C2)C3)o1 [Compound 284, 1-(1-bicyclo[1.1.1]pentanyl)-3-(4-chlorophenyl)-1-[(5-methyl-2-furyl)methyl]urea]
6.30 to 7.00	Cc1ccc(CN(C(=O)Nc2ccc(C#N)cc2)C23CC(C2)C3)o1 [Compound 285, 1-(1-bicyclo[1.1.1]pentanyl)-3-(4-cyanophenyl)-1-[(5-methyl-2-furyl)methyl]urea]
5.30 to 6.00	Cc1ccc(CN(C(=O)Nc2ccc(Cl)cc2)C2CC3(COC3)C2)o1 [Compound 286, 3-(4-chlorophenyl)-1-[(5-methyl-2-furyl)methyl]-1-(2-oxaspiro[3.3]heptan-6-yl)urea]
< 5.30	Cc1ccc(CN(C(=O)Nc2ccc(C#N)cc2)C2CC3(COC3)C2)o1 [Compound 287, 3-(4-cyanophenyl)-1-[(5-methyl-2-furyl)methyl]-1-(2-oxaspiro[3.3]heptan-6-yl)urea]
